Data as given in ChEMBL document CHEMBL1143352, “Structural evolutions of salicylaldoximes as selective agonists for estrogen receptor beta” (J Med Chem, 2009).
“And” between values parts separate entries of the source, which are not always exact repeats. Equal entries are not always repeated.

How the values were obtained:
Estrogen receptor beta [1] = molecular target: T1, Estrogen receptor beta (Homo sapiens, UniProt Q92731); experiment: Displacement of [3H]estradiol from full-length human estrogen receptor beta by radiometric assay relative to estradiol
T1 sequence (Q92731 whole entry): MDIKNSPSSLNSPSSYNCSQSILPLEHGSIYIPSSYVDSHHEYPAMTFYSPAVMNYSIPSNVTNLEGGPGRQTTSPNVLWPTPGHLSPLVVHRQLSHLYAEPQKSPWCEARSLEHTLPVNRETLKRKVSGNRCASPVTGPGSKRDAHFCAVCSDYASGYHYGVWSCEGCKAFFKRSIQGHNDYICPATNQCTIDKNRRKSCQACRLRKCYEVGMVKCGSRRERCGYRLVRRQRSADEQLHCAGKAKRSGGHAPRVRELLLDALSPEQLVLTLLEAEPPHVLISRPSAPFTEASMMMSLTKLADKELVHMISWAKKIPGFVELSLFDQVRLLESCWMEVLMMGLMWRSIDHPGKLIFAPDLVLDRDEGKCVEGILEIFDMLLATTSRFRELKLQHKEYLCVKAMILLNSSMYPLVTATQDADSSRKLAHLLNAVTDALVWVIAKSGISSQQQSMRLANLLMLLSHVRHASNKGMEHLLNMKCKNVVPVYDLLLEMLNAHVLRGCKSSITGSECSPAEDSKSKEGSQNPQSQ

Homo sapiens = organism: Homo sapiens; experiment: Ratio of relative binding affinity for full-length human estrogen receptor beta to ratio of relative binding affinity for full length human estrogen receptor alpha
Estrogen receptor beta [2] = molecular target: T1, Estrogen receptor beta; experiment: Agonist activity at full-length human estrogen receptor beta expressed in human HEC1 cells assessed as transcriptional activation after 24 hrs by luciferase reporter gene assay relative to estradiol; type: functional, cell-based; conditions: HEC-1
Estrogen receptor beta [3] = molecular target: T1, Estrogen receptor beta
Estrogen receptor = molecular target: T2, Estrogen receptor (Homo sapiens, UniProt P03372)
T2 sequence (P03372 whole entry): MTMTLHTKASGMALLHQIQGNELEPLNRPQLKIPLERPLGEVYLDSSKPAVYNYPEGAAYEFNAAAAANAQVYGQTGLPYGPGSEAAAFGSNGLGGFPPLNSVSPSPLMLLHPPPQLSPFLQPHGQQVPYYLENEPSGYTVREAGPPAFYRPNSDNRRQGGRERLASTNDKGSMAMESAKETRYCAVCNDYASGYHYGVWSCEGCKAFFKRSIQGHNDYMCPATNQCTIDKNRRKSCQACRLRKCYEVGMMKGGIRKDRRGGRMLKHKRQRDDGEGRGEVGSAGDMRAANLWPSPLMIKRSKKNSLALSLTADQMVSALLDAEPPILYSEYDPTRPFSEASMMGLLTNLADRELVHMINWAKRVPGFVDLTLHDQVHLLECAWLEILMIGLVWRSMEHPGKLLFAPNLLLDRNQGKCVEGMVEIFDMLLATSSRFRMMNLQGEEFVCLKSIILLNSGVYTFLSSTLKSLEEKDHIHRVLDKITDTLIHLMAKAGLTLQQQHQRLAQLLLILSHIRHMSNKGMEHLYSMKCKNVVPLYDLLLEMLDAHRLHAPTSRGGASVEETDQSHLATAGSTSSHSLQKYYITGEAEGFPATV
Description: Agonist activity at full-length human estrogen receptor alpha expressed in human HEC1 cells assessed as transcriptional activation after 24 hrs by luciferase reporter gene assay

| Compound | Activity (Estrogen receptor beta [1]) [%] | Ratio (Homo sapiens) | Activity (Estrogen receptor beta [2]) [%] | EC50 (Estrogen receptor beta [3]) [nM] | EC50 (Estrogen receptor) | Ki (Estrogen receptor beta [1]) [nM] |
| --- | --- | --- | --- | --- | --- | --- |
| COc1ccc(-c2ccc(/C=N/O)c(O)c2Cl)cc1F | 0.011 | 1.8 |  |  |  |  |
| C/C(=N\O)c1ccc(-c2ccc(O)cc2)c(Cl)c1O | 0.123 | 10 |  |  |  |  |
| O/N=C/c1ccc(-c2ccc(O)cc2)cc1O | 0.553 | 79 |  |  |  |  |
| O/N=C/c1cc(-c2ccc(O)c(F)c2)ccc1O | 0.97 | 46 |  |  |  |  |
| O/N=C/c1ccc(-c2ccc(O)c(F)c2)c(Cl)c1O | 7.01 | 62 | > 85 | 4.8 | 19 nM | 7.1 |
| C/C(=N\O)c1ccc(-c2ccc(O)c(F)c2)c(Cl)c1O | 0.077 | 13 |  |  |  |  |
| COc1ccc(-c2ccc(O)c(/C=N/O)c2)cc1F | 0.013 | 1.9 |  |  |  |  |
| COc1ccc(-c2ccc(/C(C)=N/O)c(O)c2Cl)cc1 | 0.002 |  |  |  |  |  |
| COc1ccc(-c2ccc(O)c(/C=N/O)c2)cc1 | 0.011 | 3.7 |  |  |  |  |
| O/N=C/c1cc(-c2ccc(O)cc2)ccc1O | 2.64 | 41 |  | 10 | 17 nM and 10 nM |  |
| COc1ccc(-c2ccc(/C(C)=N/O)c(O)c2Cl)cc1F | 0.002 |  |  |  |  |  |
